Measured values reported in publication PMC10211317, “Identification of ARUK2002821 as an isoform-selective PI5P4Kα inhibitor” (RSC Medicinal Chemistry, 2023).

Key:
Experiment in all cases: Premier Screen kinase panel (MRC PPU)
Format in all cases: biochemical
Aurora A = Aurora A (Homo sapiens, UniProt O14965); settings: Aurora A (Entrez AURKA), read-out: Residual activity (%)
Method: (§1) room temperature with shaking for 30 minutes. The kinase concentration in the eluates was measured by qPCR.
(§2) using ADP-GloTM assay at the MRC PPU International Centre for Kinase Profiling, University of Dundee.
(§3) Conducted by MRC PPU International Centre
(§4) Conducted by MRC PPU International Centre for […]

EPH-B3 = EPH-B3 (Homo sapiens, UniProt P54753); settings: EPH-B3 (Entrez EPHB3), read-out: Residual activity (%)
Method: as §1, §2, §3, §4

PDGFRA = PDGFRA (Homo sapiens, UniProt P16234); settings: PDGFRA (Entrez PDGFRA), read-out: Residual activity (%)
Method: as §1, §2, §3, §4

CAMK1 = CAMK1 (Homo sapiens, UniProt Q14012); settings: CAMK1 (Entrez CAMK1), read-out: Residual activity (%)
Method: as §1, §2, §3, §4

BRSK2 = BRSK2 (Homo sapiens, UniProt Q8IWQ3); settings: BRSK2 (Entrez BRSK2), read-out: Residual activity (%)
Method: as §1, §2, §3, §4

CHK2 = CHK2 (Homo sapiens, UniProt O96017); settings: CHK2 (Entrez CHEK2), read-out: Residual activity (%)
Method: as §1, §2, §3, §4

SRPK1 = SRPK1 (Homo sapiens, UniProt Q96SB4); settings: SRPK1 (Entrez SRPK1), read-out: Residual activity (%)
Method: as §1, §2, §3, §4

STK33 = STK33 (Homo sapiens, UniProt Q9BYT3); settings: STK33 (Entrez STK33), read-out: Residual activity (%)
Method: as §1, §2, §3, §4

SIK2 = SIK2 (Homo sapiens, UniProt Q9H0K1); settings: SIK2 (Entrez SIK2), read-out: Residual activity (%)
Method: as §1, §2, §3, §4

MPSK1 = MPSK1 (Homo sapiens, UniProt O75716); settings: MPSK1 (Entrez STK16), read-out: Residual activity (%)
Method: as §1, §2, §3, §4

PKA = PKA (Homo sapiens, UniProt P17612); settings: PKA (Entrez PRKAC), read-out: Residual activity (%)
Method: as §1, §2, §3, §4

RSK2 = RSK2 (Homo sapiens, UniProt P51812); settings: RSK2 (Entrez RPS6KA3), read-out: Residual activity (%)
Method: as §1, §2, §3, §4

SGK1 = SGK1 (Homo sapiens, UniProt O00141); settings: SGK1 (Entrez SGK1), read-out: Residual activity (%)
Method: as §1, §2, §3, §4

GCK = GCK (Homo sapiens, UniProt Q12851); settings: read-out: Residual activity (%)
Method: as §1, §2, §3, §4

TAO1 = TAO1 (Homo sapiens, UniProt Q7L7X3); settings: TAO1 (Entrez TAOK1), read-out: Residual activity (%)
Method: as §1, §2, §3, §4

PKCa = PKCa (Homo sapiens, UniProt P17252); settings: PKCa (Entrez PRKCA), read-out: Residual activity (%)
Method: as §1, §2, §3, §4

p38a MAPK = p38a MAPK (Homo sapiens, UniProt Q16539); settings: p38a MAPK (Entrez MAPK14), read-out: Residual activity (%)
Method: as §1, §2, §3, §4

PKBb = PKBb (Homo sapiens, UniProt P31751); settings: PKBb (Entrez AKT2), read-out: Residual activity (%)
Method: as §1, §2, §3, §4

ULK1 = ULK1 (Homo sapiens, UniProt O75385); settings: ULK1 (Entrez ULK1), read-out: Residual activity (%)
Method: as §1, §2, §3, §4

MLK3 = MLK3 (Homo sapiens, UniProt Q16584); settings: MLK3 (Entrez MAP3K11), read-out: Residual activity (%)
Method: as §1, §2, §3, §4

PIM1 = PIM1 (Homo sapiens, UniProt P11309); settings: PIM1 (Entrez PIM1), read-out: Residual activity (%)
Method: as §1, §2, §3, §4

JNK1 = JNK1 (Homo sapiens, UniProt P45983); settings: JNK1 (Entrez MAPK8), read-out: Residual activity (%)
Method: as §1, §2, §3, §4

MEKK1 = MEKK1 (Homo sapiens, UniProt Q13233); settings: MEKK1 (Entrez MAP3K1), read-out: Residual activity (%)
Method: as §1, §2, §3, §4

MARK3 = MARK3 (Homo sapiens, UniProt P27448); settings: MARK3 (Entrez MARK3), read-out: Residual activity (%)
Method: as §1, §2, §3, §4

PAK2 = PAK2 (Homo sapiens, UniProt Q13177); settings: PAK2 (Entrez PAK2), read-out: Residual activity (%)
Method: as §1, §2, §3, §4

EPH-B4 = EPH-B4 (Homo sapiens, UniProt P54760); settings: EPH-B4 (Entrez EPHB4), read-out: Residual activity (%)
Method: as §1, §2, §3, §4

MST4 = MST4 (Homo sapiens, UniProt Q9P289); settings: MST4 (Entrez STK26), read-out: Residual activity (%)
Method: as §1, §2, §3, §4

CSK = CSK (Homo sapiens, UniProt P41240); settings: CSK (Entrez CSK), read-out: Residual activity (%)
Method: as §1, §2, §3, §4

FGF-R1 = FGF-R1 (Homo sapiens, UniProt P11362); settings: FGF-R1 (Entrez FGFR1), read-out: Residual activity (%)
Method: as §1, §2, §3, §4

WNK1 = WNK1 (Homo sapiens, UniProt Q9H4A3); settings: WNK1 (Entrez WNK1), read-out: Residual activity (%)
Method: as §1, §2, §3, §4

EF2K = EF2K (Homo sapiens, UniProt O00418); settings: EF2K (Entrez EEF2K), read-out: Residual activity (%)
Method: as §1, §2, §3, §4

EF2K, sequence (O00418 whole entry): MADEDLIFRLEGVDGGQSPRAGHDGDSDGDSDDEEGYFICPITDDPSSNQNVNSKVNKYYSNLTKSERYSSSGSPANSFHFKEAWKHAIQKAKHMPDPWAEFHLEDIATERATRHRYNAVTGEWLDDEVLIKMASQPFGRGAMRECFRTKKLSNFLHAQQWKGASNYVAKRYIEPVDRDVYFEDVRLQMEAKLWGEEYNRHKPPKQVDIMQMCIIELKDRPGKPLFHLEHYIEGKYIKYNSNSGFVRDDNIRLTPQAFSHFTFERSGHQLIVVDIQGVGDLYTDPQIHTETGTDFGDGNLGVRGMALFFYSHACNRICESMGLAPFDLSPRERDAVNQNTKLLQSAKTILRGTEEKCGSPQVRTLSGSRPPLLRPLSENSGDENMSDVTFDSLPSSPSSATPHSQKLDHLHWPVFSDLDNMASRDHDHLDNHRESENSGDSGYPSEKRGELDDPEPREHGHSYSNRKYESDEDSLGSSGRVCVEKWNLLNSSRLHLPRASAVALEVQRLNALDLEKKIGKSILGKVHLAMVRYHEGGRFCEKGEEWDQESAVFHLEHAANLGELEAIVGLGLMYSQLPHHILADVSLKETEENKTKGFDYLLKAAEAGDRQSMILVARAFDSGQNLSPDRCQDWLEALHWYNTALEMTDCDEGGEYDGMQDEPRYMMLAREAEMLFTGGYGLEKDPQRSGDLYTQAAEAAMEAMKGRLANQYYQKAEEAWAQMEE
CHK2, sequence (O96017 whole entry): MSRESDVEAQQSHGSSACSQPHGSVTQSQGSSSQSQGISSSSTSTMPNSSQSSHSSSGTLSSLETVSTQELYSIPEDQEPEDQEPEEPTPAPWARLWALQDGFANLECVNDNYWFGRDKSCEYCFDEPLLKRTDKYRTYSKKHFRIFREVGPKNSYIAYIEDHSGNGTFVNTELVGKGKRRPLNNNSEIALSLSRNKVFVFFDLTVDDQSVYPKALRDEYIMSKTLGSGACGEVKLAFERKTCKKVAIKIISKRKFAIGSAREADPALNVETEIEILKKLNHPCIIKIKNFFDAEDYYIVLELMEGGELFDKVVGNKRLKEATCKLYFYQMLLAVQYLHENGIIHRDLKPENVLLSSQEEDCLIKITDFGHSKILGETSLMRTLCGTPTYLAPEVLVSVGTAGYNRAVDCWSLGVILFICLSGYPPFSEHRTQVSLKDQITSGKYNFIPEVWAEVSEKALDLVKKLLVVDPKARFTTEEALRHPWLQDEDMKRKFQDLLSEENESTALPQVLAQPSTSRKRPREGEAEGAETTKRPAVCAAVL
GCK, sequence (Q12851 whole entry): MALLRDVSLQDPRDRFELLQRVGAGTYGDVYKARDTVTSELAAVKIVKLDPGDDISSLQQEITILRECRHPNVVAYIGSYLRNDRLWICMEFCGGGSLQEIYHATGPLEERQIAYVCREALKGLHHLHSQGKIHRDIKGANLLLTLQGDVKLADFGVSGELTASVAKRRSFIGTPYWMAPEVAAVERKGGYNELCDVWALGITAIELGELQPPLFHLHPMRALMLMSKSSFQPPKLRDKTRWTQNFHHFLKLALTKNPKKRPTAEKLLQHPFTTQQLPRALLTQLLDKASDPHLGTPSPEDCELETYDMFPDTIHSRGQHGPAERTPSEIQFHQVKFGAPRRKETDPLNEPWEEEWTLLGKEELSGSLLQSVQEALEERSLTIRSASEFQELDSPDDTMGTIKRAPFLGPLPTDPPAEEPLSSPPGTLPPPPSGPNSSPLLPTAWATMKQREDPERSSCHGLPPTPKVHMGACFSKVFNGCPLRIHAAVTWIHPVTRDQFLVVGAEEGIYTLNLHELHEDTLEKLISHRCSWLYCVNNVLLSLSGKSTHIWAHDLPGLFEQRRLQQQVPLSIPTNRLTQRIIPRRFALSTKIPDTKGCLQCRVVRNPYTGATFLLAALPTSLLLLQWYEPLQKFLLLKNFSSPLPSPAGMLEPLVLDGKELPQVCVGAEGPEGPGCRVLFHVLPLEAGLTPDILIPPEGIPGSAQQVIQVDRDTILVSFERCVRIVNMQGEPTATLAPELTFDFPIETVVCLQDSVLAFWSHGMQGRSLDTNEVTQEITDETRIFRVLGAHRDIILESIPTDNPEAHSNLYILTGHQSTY
CAMK1, sequence (Q14012 whole entry): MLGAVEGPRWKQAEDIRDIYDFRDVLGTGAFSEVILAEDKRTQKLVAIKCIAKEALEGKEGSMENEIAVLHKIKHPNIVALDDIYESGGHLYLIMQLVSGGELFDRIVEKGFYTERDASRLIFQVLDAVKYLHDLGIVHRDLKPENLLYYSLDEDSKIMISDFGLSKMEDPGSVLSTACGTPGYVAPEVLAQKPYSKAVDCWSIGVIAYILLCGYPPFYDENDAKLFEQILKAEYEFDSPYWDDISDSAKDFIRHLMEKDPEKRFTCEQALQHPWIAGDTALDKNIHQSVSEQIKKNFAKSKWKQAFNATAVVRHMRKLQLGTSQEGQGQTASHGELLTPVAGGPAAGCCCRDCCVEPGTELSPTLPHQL
PIM1, sequence (P11309 whole entry): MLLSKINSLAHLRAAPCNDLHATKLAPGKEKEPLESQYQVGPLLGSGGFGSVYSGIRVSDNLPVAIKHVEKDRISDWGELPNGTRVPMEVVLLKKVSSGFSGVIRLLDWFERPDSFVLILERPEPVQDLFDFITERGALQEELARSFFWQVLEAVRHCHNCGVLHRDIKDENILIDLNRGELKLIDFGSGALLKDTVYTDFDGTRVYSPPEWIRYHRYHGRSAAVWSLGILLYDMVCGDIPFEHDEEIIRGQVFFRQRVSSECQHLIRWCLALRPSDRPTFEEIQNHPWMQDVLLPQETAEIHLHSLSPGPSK
BRSK2, sequence (Q8IWQ3 whole entry): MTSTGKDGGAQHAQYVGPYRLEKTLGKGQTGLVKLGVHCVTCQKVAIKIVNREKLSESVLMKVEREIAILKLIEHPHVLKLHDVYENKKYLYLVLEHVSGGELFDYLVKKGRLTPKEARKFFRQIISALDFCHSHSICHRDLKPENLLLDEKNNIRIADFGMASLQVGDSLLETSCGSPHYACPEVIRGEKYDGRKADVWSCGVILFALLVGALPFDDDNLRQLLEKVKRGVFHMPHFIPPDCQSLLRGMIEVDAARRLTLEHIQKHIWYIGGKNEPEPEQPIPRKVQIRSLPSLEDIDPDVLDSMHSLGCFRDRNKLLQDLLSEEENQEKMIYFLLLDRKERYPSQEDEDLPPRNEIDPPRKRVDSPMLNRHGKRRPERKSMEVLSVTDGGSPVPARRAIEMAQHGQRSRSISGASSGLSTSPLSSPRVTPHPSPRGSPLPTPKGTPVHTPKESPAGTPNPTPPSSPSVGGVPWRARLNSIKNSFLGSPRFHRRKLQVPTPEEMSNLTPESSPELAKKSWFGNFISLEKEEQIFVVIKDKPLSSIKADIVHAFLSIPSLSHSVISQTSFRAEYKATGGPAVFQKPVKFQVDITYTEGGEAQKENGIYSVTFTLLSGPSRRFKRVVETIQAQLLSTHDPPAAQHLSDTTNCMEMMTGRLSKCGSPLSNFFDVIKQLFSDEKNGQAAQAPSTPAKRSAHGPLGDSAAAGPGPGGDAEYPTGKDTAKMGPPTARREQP
MPSK1, sequence (O75716 whole entry): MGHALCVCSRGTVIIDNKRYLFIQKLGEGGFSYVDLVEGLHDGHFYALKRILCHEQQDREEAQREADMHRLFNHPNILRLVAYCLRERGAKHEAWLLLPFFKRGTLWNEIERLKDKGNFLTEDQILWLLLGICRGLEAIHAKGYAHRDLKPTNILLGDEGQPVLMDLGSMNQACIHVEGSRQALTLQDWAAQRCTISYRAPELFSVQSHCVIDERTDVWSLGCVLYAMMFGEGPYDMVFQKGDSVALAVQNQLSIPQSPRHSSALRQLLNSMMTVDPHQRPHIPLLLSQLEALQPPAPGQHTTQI
CSK, sequence (P41240 whole entry): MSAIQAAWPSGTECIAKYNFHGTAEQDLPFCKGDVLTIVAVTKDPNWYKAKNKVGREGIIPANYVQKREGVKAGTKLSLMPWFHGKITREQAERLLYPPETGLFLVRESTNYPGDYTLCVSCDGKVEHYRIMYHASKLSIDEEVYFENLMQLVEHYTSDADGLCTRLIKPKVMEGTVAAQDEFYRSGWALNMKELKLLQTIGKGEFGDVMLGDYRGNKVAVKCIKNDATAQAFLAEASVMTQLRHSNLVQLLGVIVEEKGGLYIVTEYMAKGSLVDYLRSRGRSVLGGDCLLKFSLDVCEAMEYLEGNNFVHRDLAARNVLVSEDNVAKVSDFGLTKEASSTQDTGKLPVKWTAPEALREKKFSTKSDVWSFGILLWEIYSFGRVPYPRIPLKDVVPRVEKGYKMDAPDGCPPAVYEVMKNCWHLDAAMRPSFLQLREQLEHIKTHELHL

`COc1ccc(Nc2ncnc3c2ccn3-c2ccc(C)c(C)c2)cc1Cl` [compound 36] gave a remaining activity at 1 µM (Aurora A) of 81%, a remaining activity at 1 µM (EPH-B3) of 79% and a remaining activity at 1 µM (PDGFRA) of 70%. The remaining activity at 1 µM (CAMK1) was 99%, the remaining activity at 1 µM (BRSK2) was 111% and the remaining activity at 1 µM (CHK2) was 96%. For the same compound, the remaining activity at 1 µM (SRPK1) was 99%, the remaining activity at 1 µM (STK33) was 93% and the remaining activity at 1 µM (SIK2) was 109%. For the same compound, the remaining activity at 1 µM (MPSK1) was 96%, the remaining activity at 1 µM (PKA) was 80% and the remaining activity at 1 µM (RSK2) was 77%. For the same compound, the remaining activity at 1 µM (SGK1) was 97%, the remaining activity at 1 µM (GCK) was 105% and the remaining activity at 1 µM (TAO1) was 111%. The remaining activity at 1 µM (PKCa) was 96%, the remaining activity at 1 µM (p38a MAPK) was 98% and the remaining activity at 1 µM (PKBb) was 103%. For the same compound, the remaining activity at 1 µM (ULK1) was 102%, the remaining activity at 1 µM (MLK3) was 83% and the remaining activity at 1 µM (PIM1) was 75%. The remaining activity at 1 µM (JNK1) was 85%, the remaining activity at 1 µM (MEKK1) was 115% and the remaining activity at 1 µM (MARK3) was 104%. It also gave a remaining activity at 1 µM (PAK2) of 99%, a remaining activity at 1 µM (EPH-B4) of 99% and a remaining activity at 1 µM (MST4) of 99%. The remaining activity at 1 µM (CSK) was 104%, the remaining activity at 1 µM (FGF-R1) was 95% and the remaining activity at 1 µM (WNK1) was 105%. For the same compound, the remaining activity at 1 µM (EF2K) was 85%.
